Values quoted from earlier work in US20050244491A1, “Fast disintegrating meloxicam tablet” (Boehringer Ingelheim International GmbH, priority 2001, published 2005).

Conditions: in acidic or neutral medium

solubility: low
Compound: Cc1cnc(NC(=O)C2=C(O)c3ccccc3S(=O)(=O)N2C)s1 [Meloxicam, 2H-1,2-benzothiazine-3-carboxamide, 4-hydroxy-2-methyl-N-(5-methyl-2-thiazolyl)-1,1-dioxide]
